The source of these data is PMC5025651, “Reprofiled anthelmintics abate hypervirulent stationary-phase Clostridium difficile” (Scientific Reports, 2016).

SMILES strings stand for the structures. Converted amounts (≈) assume the structure as drawn. Counter-ions that a name gives are not always drawn. Like-named read-outs stand apart in the source and are kept apart here.

One data set relates to L. plantarum ATCC 8014. Briefly: MIC by broth microdilution. Format: cell-based. The conditions noted are these: Lactiplantibacillus plantarum.
A further data set has as its system P. distasonis ATCC 8503. As to the kind of experiment: MIC by broth microdilution. Format: cell-based. The following applies: Parabacteroides distasonis, ATCC8503.
For data set [1] the following is noted: ruminants; cited from earlier work.
The subject of data set [2] is L. johnsonii Strain 135-1-CHN. Briefly: MIC by broth microdilution. It is filed as cell-based. The following applies: Lactobacillus johnsonii, STRAIN1351CHN.
The subject of another data set is HEK 293T/17 cells. Briefly: In vitro cytotoxicity, MTS assay. The following applies: HEK 293T/17, MTS; for in vitro toxicity compared with niclosamide (in words): 0.125–32 μg/mL. Format: cell-based, human. The method, then:
(§1) Cell lines Hep G2 [HEPG2] (ATCC® HB-8065^TM) and 293T/17 [HEK 293T/17] (ATCC® CRL-11268^TM) were purchased from ATCC and cultured according to manufacturer’s instructions. HEPG2 or HEK 293T/17 cells were cultured in 96-well plates, and incubated at 37 °C in a 5% CO2 humidifying chamber for 24 h. Cells were then treated with test compounds at concentrations ranging from 0.125–32 μg/mL, and an MTS assay was performed at 16-h post-incubation at 37 °C in a 5% CO2 humidifying chamber, using the CellTiter 96 aqueous non-radioactive cell proliferation assay kit (Promega, Madison, WI, USA) per manufacturer’s instructions. MTS assays were performed in duplicate.

The next data set concerns HepG2 cells. Briefly: In vitro cytotoxicity, MTS assay. It is filed as cell-based, human. The conditions noted are these: for in vitro toxicity compared with niclosamide (in words): 0.125–32 μg/mL. The method, then: as §1
In another data set the test system is Sheep red blood cells. As to the kind of experiment: Hemolysis assay. The following applies: tested at 32 μg/mL, sheep erythrocytes. Format: cell-based. An outline of the steps:
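PBS-washed sheep erythrocytes (3% suspension, pH 7.4) were exposed to compound at 32 μg/mL final for 1 h at 37 °C. After centrifugation, supernatant absorbance at 540 nm was read against 1% Triton X-100 (full lysis) and 0.5% DMSO in PBS. Triplicate.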

Data set [3] relates to C. difficile strain 630 (CD630, ATCC BAA-1382-FZ, ribotype 012). Briefly: MIC by broth microdilution. It is filed as cell-based, Clostridium difficile.
For the next data set, the system named is C. difficile strain 4118. As to the kind of experiment: Serial passage experiments (resistance development). The conditions noted are these: after 21 serial passages of CD4118 at 0.5 × MIC. Format: cell-based, Clostridium difficile. The method, then: C. difficile strain 4118 serial passages were performed in BHIS containing 0.03% L-cysteine, using the broth microdilution method. The MIC for each compound was first determined according to the procedure detailed above. […] Serial passage experiments were performed in duplicate.

The test system of data set [4] is panel of obligate aerobes, facultative anaerobes and obligate anaerobes. Briefly: Antibacterial spectrum, MIC against a panel of bacteria. The conditions noted are these: ratio of MIC values. It is filed as cell-based.
The mark [5] stands for this setting: ATCC8014, L. plantarum ATCC 8014, CAMHB with 5% laked horse blood, ~48 h, duplicate, read-out: MIC.
Setting [6] is: P. distasonis ATCC 8503, supplemented Brucella broth, anaerobic, duplicate, read-out: MIC.
The mark [7] stands for this setting: L. johnsonii 135-1-CHN, CAMHB with 5% laked horse blood, ~48 h, duplicate, read-out: MIC.

Broadly, the MIC is the lowest concentration that inhibits growth of the organism. Consider `Cc1cc(C(C#N)c2ccc(Cl)cc2)c(Cl)cc1NC(=O)c1cc(I)cc(I)c1O` (stereo not shown) [Closantel], for which the results for the MIC (with L. plantarum ATCC 8014 (setting [5]); in the data set on P. distasonis ATCC 8503 (setting [6]); in data set [2] (setting [7])) were above 32 µg/mL, 16 µg/mL (≈ 24.1 µM) and 32 µg/mL (≈ 48.3 µM), respectively. Further, the “excreted unchanged in the feces” value in data set [1] is listed as at most 90%.
`O=C(Nc1ccc(Oc2ccc(Cl)cc2)cc1)c1cc(Cl)cc(Cl)c1O` [Compound 8]: the MIC in the data set with L. plantarum ATCC 8014 (setting [5]) is 16 µg/mL (≈ 39.2 µM); in the data set on P. distasonis ATCC 8503 (setting [6]), 4 µg/mL (≈ 9.79 µM); in data set [3] (Clostridioides difficile, ATCCBAA1382, BHIS broth, anaerobic, 20–24 h, n = 2), 0.03 µg/mL (≈ 0.0734 µM); in [2] (setting [7]), 32 µg/mL (≈ 78.3 µM). Moreover, the “in vitro toxicity compared with niclosamide (in words)” value with HEK 293T/17 cells was “lower in vitro toxicities”; with HepG2 cells (HepG2, MTS), “lower in vitro toxicities”. The “rupture of red blood cells (in words)” value in the data set on Sheep red blood cells was “did not cause rupture of red blood cells”. In data set [3] (BHIS broth, anaerobic, 20–24 h, n = 2), the “MIC C. difficile 630” value worked out at 0.03 µg/mL (≈ 0.0734 µM). Besides, the “decrease in MIC relative to 5g” value in [3] (CD630 and CD4118 (Table 2)) is listed as 4 fold.
In the case of `Cc1ncc([N+](=O)[O-])n1CCO` [Metronidazole, metronidazole], the MIC with L. plantarum ATCC 8014 (setting [5]) is above 32 µg/mL; with P. distasonis ATCC 8503 (setting [6]), 2 µg/mL (≈ 11.7 µM); in data set [2] (setting [7]), above 32 µg/mL. For the same compound, the “final MIC relative to initial (pre-passage) MIC” value with C. difficile strain 4118 was ~ 2 fold.
On to `O=C(Nc1ccc(Oc2ccc(Cl)cc2)c(Cl)c1)c1cc(I)cc(I)c1O` [Rafoxanide, rafoxanide], for which the MIC turned out to be 32 µg/mL (≈ 51.1 µM) in the data set on L. plantarum ATCC 8014 (ATCC8014, 48 h); 8 µg/mL (≈ 12.8 µM) in the data set on P. distasonis ATCC 8503; 32 µg/mL (≈ 51.1 µM) in data set [2] (48 h). Moreover, the “in vitro toxicity compared with niclosamide (in words)” value is listed as “lower in vitro toxicities” in the data set with HEK 293T/17 cells and “lower in vitro toxicities” with HepG2 cells (HepG2, MTS). In addition, the “concentration with no apparent effect on cell viability” value was at least 8000 ng/mL in the data set on HEK 293T/17 cells (16 h) and at least 8000 ng/mL in the data set on HepG2 cells (HepG2, MTS, 16 h). Besides, the “no-effect concentration on mammalian cell viability relative to MIC values against C. difficile” value in the data set on HepG2 cells (8 μg/mL, HepG2 and HEK 293T/17) is given as at least 64 fold. Further, in data set [4], the “selectivity for C. difficile over Bifidobacterium/Lactobacillus strains and Gram-negative gut commensals (Bacteroides species)” value is listed as at least 32 fold. Also, in the data set with Sheep red blood cells, the “rupture of red blood cells (in words)” value is recorded as “did not cause rupture of red blood cells”.
In the case of `CN[C@H](CC(C)C)C(=O)N[C@H]1C(=O)N[C@@H](CC(N)=O)C(=O)N[C@H]2C(=O)N[C@H]3C(=O)N[C@H](C(=O)N[C@H](C(=O)O)c4cc(O)cc(O)c4-c4cc3ccc4O)[C@H](O)c3ccc(c(Cl)c3)Oc3cc2cc(c3O[C@@H]2O[C@H](CO)[C@@H](O)[C@H](O)[C@H]2O[C@H]2C[C@](C)(N)[C@H](O)[C@H](C)O2)Oc2ccc(cc2Cl)[C@H]1O` [Vancomycin, vancomycin hydrochloride hydrate], the minimal inhibitory concentration (MIC) in the data set on L. plantarum ATCC 8014 (setting [5]) is above 32 µg/mL; against P. distasonis ATCC 8503, above 32 µg/mL; in data set [2] (setting [7]), 0.5 µg/mL. For the same compound, the “final MIC relative to initial (pre-passage) MIC” value in the data set on C. difficile strain 4118 is reported as ~ 2 fold.
